# Earlier results, collected in patent US7812020B2, “Substituted pyridine derivatives” (priority 2005, dated 2010).
# Columns and labels:
# rats and mice = conditions: oral and intraperitoneal administration; electrically induced seizures, pentylenetetrazole, picrotoxin, NMDA, DBA/2 mouse
# [1] = test system: K(+) current in neuronal cells
# amygdala kindling model = conditions: complex partial seizures
# rat [2] = conditions: following kainic acid-induced status epilepticus in the rat
# [3] = test system: animal models of neuropathic pain; conditions: in vivo
# [4] = test system: animal models of anxiety-like behaviour; conditions: in vivo
# rat [5] = test system: rat
# epileptic patients = conditions: clinical trials
structure (smiles),measurement,setting,value
"CCOC(=O)Nc1ccc(NCc2ccc(F)cc2)cc1N [Retigabine, N-(2-amino-4-(4-fluorobenzylamino)-phenyl)carbamic acid ethyl ester]",anticonvulsant activity,rats and mice,active
same,effect on K(+) current,[1],activate a K(+) current
same,activity in amygdala kindling model,amygdala kindling model,active
same,limbic neurodegeneration and markers of apoptosis,rat [2],prevent limbic neurodegeneration and the expression of markers of apoptosis
same,effect in neuropathic pain models,[3],beneficial
same,activity in anxiety-like behaviour models,[4],active
same,progression of hippocampal kindling,rat [5],delay the progression of hippocampal kindling
same,incidence of seizures,epileptic patients,effectiveness in reducing the incidence of seizures
